Measured values taken from patent US20040024055A1, “Pharmaceutical composition containing the exract of saururus chinensis baill useful as an anticancer agent and a process for the preparation thereof” (priority 2000, published 2004).
≈ marks a conversion by molar mass, not a printed value.

Tests used:
[1] = test system: SK-Hep-1 liver cancer cell line; test: MTT analysis, anticancer activity; type: cell-based, human; conditions: Homo sapiens, SK-HEP1, 48 hr
Procedure: (§2) To be specific, SK-Hep-1 cell, which is liver cancer cell line, was added to 96-well microplate (Falcon, USA) with the concentration of 3×10^5 cells/ml by 100 μl per well. Each extracted and separated substance dissolved in DMSO was added to the well by 100 μl for the final concentration to be from 50 μg/ml to 0.0244 μg/ml, with 200 μl of final volume. Each cell was cultured for 48 hr in a culture medium of 37° C. and 5% CO2. After cultivation, 20 μl of phosphate buffer solution containing 5 mg/ml of MTT (3-[4,5-dimethylthiazol-2-yl]-2,5-diphenyltetrazoliumbromide, Sigma Co.) reagent was added to each well, and then cultured for 4 hr. After taking 100 μl of supernant from each culture medium, 100 μl of 0.04N hydrochloric acid-isopropanol was added. After letting alone overnight, absorbance was measured at 560 nm using automatic Eliza detector (Molecular Divices Corp., USA). Anticancer activity of each extracted and separated substance was calculated from the absorbance value by Equation 1 and was expressed in terms of cell.
(§3) Average Existence Rate(%)=(Absorbance of Treated Group)/(Absorbance of Control Group)×100

[2] = test system: PC-3 prostate cancer cell line; test: MTT analysis, anticancer activity; type: cell-based, human; conditions: Homo sapiens, 48 hr
Procedure: as §2, §3

[3] = test system: DU-145 prostate cancer cell line; test: MTT analysis, anticancer activity; type: cell-based, human; conditions: Homo sapiens, DU-145, 48 hr
Procedure: as §2, §3

BT-20 = test: MTT analysis, anticancer activity; type: cell-based, human; conditions: Homo sapiens, BT-20, 48 hr
BT-549 = test: MTT analysis, anticancer activity; type: cell-based, human; conditions: Homo sapiens, BT-549; MTT, 48 hr
HS-578T = test: MTT analysis, anticancer activity; type: cell-based, human; conditions: Homo sapiens, Hs-578T; MTT, 48 hr
SK-BR-3 = test: MTT analysis, anticancer activity; type: cell-based, human; conditions: Homo sapiens, SK-BR-3, 48 hr
T-47D = test: MTT analysis, anticancer activity; type: cell-based, human; conditions: Homo sapiens, T47D, 48 hr
HeLa = test: MTT analysis, anticancer activity; type: cell-based, human; conditions: Homo sapiens, HeLa, 48 hr
ME-180 = test: MTT analysis, anticancer activity; type: cell-based, human; conditions: Homo sapiens, ME-180; MTT, 48 hr
SK-N-SH = test: MTT analysis, anticancer activity; type: cell-based, human; conditions: Homo sapiens, SK-N-SH, 48 hr
T98G = test: MTT analysis, anticancer activity; type: cell-based, human; conditions: Homo sapiens, T98G, 48 hr
KATO-III = test: MTT analysis, anticancer activity; type: cell-based, human; conditions: Homo sapiens, KATO III; MTT, 48 hr; read-out: IC50 KATO-III
SK-OV-3 = test: MTT analysis, anticancer activity; type: cell-based, human; conditions: Homo sapiens, SK-OV-3; MTT, 48 hr
HS683 = test: MTT analysis, anticancer activity; type: cell-based, human; conditions: Homo sapiens, Hs 683, 48 hr
293 = test: MTT analysis, cytotoxicity against normal cell line; type: cell-based, human; conditions: Homo sapiens, HEK293; MTT, 48 hr
3T3-L1 = test: as above; type: cell-based, mouse; conditions: Mus musculus, 3T3-L1; MTT, 48 hr
CHO = test: as above; type: cell-based, Chinese hamster; conditions: Cricetulus griseus, CHO; MTT, 48 hr
HS27 = test: as above; type: cell-based, human; conditions: Homo sapiens, HS27; MTT, 48 hr
NIH-3T3 [4] = test: as above; type: cell-based, mouse; conditions: Mus musculus, NIH3T3; MTT, 48 hr
SK-Hep-1 [5] = test: Adhesion of cancer cell to Matri-Gel; type: cell-based, human
Procedure: (§1) After treating HNP-98701 on tissue culture plate coated with the matrices, cancer cell was attached thereupon. To be specific, 50 μl/ml of […], 2 μg/ml of laminin, 2 μg/ml of collagen and 2 μg/ml of gelatin were coated on the surface of 96-well microplate (Corning Co.) per well. After solidifying for 2 hr, HNP-98701 was added to each well and treated for 1 hr. […] After treating the substances for 1 hr, cancer cell was added to each cell, and it was cultured for 3 hr. […] After culturing these cell lines for 3 hr, they were centrifuged. After collecting biomass only, it was washed with distilled water or PBS buffer solution for three times. […] Then, absorbance was measured at 560-405 nm with automatic Eliza detector (Molecular […] Corp., USA). […] Each experiment was performed for three times repeatedly.

NIH-3T3 [6] = test: Adhesion of cell to Matri-Gel; type: cell-based, mouse
Procedure: as §1

Hep-2 [7] = test: Adhesion of cancer cell to Laminin; type: cell-based, human
Procedure: as §1

SK-Hep-1 [8] = test: Adhesion of cancer cell to Laminin; type: cell-based, human
Procedure: as §1

SK-MEL-28 [9] = test: Adhesion of cancer cell to Laminin; type: cell-based, human
Procedure: as §1

Hep-2 [10] = test: Adhesion of cancer cell to Collagen; type: cell-based, human
Procedure: as §1

SK-Hep-1 [11] = test: Adhesion of cancer cell to Collagen; type: cell-based, human
Procedure: as §1

SK-MEL-28 [12] = test: Adhesion of cancer cell to Collagen; type: cell-based, human
Procedure: as §1

Hep-2 [13] = test: Adhesion of cancer cell to Gelatin; type: cell-based, human
Procedure: as §1

SK-Hep-1 [14] = test: Adhesion of cancer cell to Gelatin; type: cell-based, human
Procedure: as §1

SK-MEL-28 [15] = test: Adhesion of cancer cell to Gelatin; type: cell-based, human
Procedure: as §1

NIH-3T3 [16] = test: Adhesion of cell to Gelatin; type: cell-based, mouse
Procedure: as §1

**Q.** What does the source list for `COc1cccc2c1C(=O)c1c(O)c3c(c(O)c1C2=O)C[C@@](O)(C(=O)CO)C[C@@H]3O[C@H]1C[C@H](N)[C@H](O)[C@H](C)O1` [Adriamycin, adriamycin (doxorubicin)]?
**A.** IC50 [1]: 0.282 µg/mL (≈ 0.518 µM); IC50 [2]: 0.575 µg/mL (≈ 1.06 µM); IC50 [3]: > 50 µg/mL; IC50 (BT-20): 0.131 µg/mL (≈ 0.241 µM); IC50 (BT-549): 0.438 µg/mL (≈ 0.806 µM); IC50 (HS-578T): 0.469 µg/mL (≈ 0.862 µM); IC50 (SK-BR-3): 0.705 µg/mL (≈ 1.3 µM); IC50 (T-47D): 0.255 µg/mL (≈ 0.469 µM); IC50 (HeLa): 0.703 µg/mL (≈ 1.29 µM); IC50 (ME-180): 0.108 µg/mL (≈ 0.198 µM); IC50 (SK-N-SH): 0.207 µg/mL (≈ 0.381 µM); IC50 (T98G): 1.61 µg/mL (≈ 2.97 µM); IC50 (KATO-III): 0.342 µg/mL (≈ 0.628 µM); IC50 (SK-OV-3): > 50 µg/mL; IC50 (HS683): 0.205 µg/mL (≈ 0.377 µM); IC50 293: < 0.008 µg/mL; IC50 (3T3-L1): 2 µg/mL (≈ 3.68 µM); IC50 (CHO): 5.22 µg/mL (≈ 9.61 µM); IC50 (HS27): 0.218 µg/mL (≈ 0.401 µM); IC50 (NIH-3T3 [4]): 0.496 µg/mL (≈ 0.913 µM); Adhesion SK-Hep-1 (%) (SK-Hep-1 [5]; 0.1 μg/ml): 99.04%; Adhesion SK-Hep-1 (%) (SK-Hep-1 [5]; 1 μg/ml): 95.93%; Adhesion SK-Hep-1 (%) (SK-Hep-1 [5]; 10 μg/ml): 88.74%; Adhesion NIH-3T3 (%) (NIH-3T3 [6]; 0.1 μg/ml): 115.00%; Adhesion NIH-3T3 (%) (NIH-3T3 [6]; 1 μg/ml): 108.65%; Adhesion NIH-3T3 (%) (NIH-3T3 [6]; 10 μg/ml): 104.23%; Adhesion Hep-2 (%) (Hep-2 [7]; 0.1 μg/ml): 106.76%; Adhesion Hep-2 (%) (Hep-2 [7]; 1 μg/ml): 105.13%; Adhesion Hep-2 (%) (Hep-2 [7]; 10 μg/ml): 98.75%; Adhesion SK-Hep-1 (%) (SK-Hep-1 [8]; 0.1 μg/ml): 96.18%; Adhesion SK-Hep-1 (%) (SK-Hep-1 [8]; 1 μg/ml): 96.92%; Adhesion SK-Hep-1 (%) (SK-Hep-1 [8]; 10 μg/ml): 95.86%; Adhesion SK-MEL-28 (%) (SK-MEL-28 [9]; 0.1 μg/ml): 108.40%; Adhesion SK-MEL-28 (%) (SK-MEL-28 [9]; 1 μg/ml): 109.66%; Adhesion SK-MEL-28 (%) (SK-MEL-28 [9]; 10 μg/ml): 113.03%; Adhesion Hep-2 (%) (Hep-2 [10]; 0.1 μg/ml): 91.10%; Adhesion Hep-2 (%) (Hep-2 [10]; 1 μg/ml): 93.11%; Adhesion Hep-2 (%) (Hep-2 [10]; 10 μg/ml): 88.85%; Adhesion SK-Hep-1 (%) (SK-Hep-1 [11]; 0.1 μg/ml): 98.83%; Adhesion SK-Hep-1 (%) (SK-Hep-1 [11]; 1 μg/ml): 97.89%; Adhesion SK-Hep-1 (%) (SK-Hep-1 [11]; 10 μg/ml): 103.28%; Adhesion SK-MEL-28 (%) (SK-MEL-28 [12]; 0.1 μg/ml): 94.27%; Adhesion SK-MEL-28 (%) (SK-MEL-28 [12]; 1 μg/ml): 94.49%; Adhesion SK-MEL-28 (%) (SK-MEL-28 [12]; 10 μg/ml): 94.71%; Adhesion Hep-2 (%) (Hep-2 [13]; 0.1 μg/ml): 104.27%; Adhesion Hep-2 (%) (Hep-2 [13]; 1 μg/ml): 98.27%; Adhesion Hep-2 (%) (Hep-2 [13]; 10 μg/ml): 97.73%; Adhesion SK-Hep-1 (%) (SK-Hep-1 [14]; 0.1 μg/ml): 85.77%; Adhesion SK-Hep-1 (%) (SK-Hep-1 [14]; 1 μg/ml): 76.37%; Adhesion SK-Hep-1 (%) (SK-Hep-1 [14]; 10 μg/ml): 33.29%; Adhesion SK-MEL-28 (%) (SK-MEL-28 [15]; 0.1 μg/ml): 96.39%; Adhesion SK-MEL-28 (%) (SK-MEL-28 [15]; 1 μg/ml): 97.42%; Adhesion SK-MEL-28 (%) (SK-MEL-28 [15]; 10 μg/ml): 97.21%; Adhesion NIH-3T3 (%) (NIH-3T3 [16]; 0.1 μg/ml): 108.67%; Adhesion NIH-3T3 (%) (NIH-3T3 [16]; 1 μg/ml): 108.86%; Adhesion NIH-3T3 (%) (NIH-3T3 [16]; 10 μg/ml): 105.81%
